# Experimental data from patent US20220088403A1, “Methods And Compositions For Treating Coronavirus” (NOVOCURE GMBH, priority 2020, published 2022).
# Legend:
# HCoV-229E [1] = assay: Intracellular (cellular) viral load by RT-qPCR, combined effect of TTFields with remdesivir; assay type: cell-based, HCoV-229E in human MRC-5 lung fibroblast cells; conditions: for Calculated additive: Remdesivir alone multiplied by TTFields alone
# HCoV-229E [2] = assay: Extracellular viral amount (virions secreted to the media) by RT-qPCR, combined effect of TTFields with remdesivir; assay type: cell-based, HCoV-229E in human MRC-5 lung fibroblast cells; conditions: 48 hpi
compound,measurement,setting,value
CCC(CC)COC(=O)[C@H](C)N[P@](=O)(OC[C@H]1O[C@@](C#N)(c2ccc3c(N)ncnn23)[C@H](O)[C@@H]1O)Oc1ccccc1 [remdesivir],reduction of cellular viral load,"HCoV-229E [1]; 0.023 μM remdesivir alone, MRC-5 infected 3 hr, MOI 0.01, 48 hpi",65%
same,inhibition at 0.011 µM,"HCoV-229E [1]; Human coronavirus 229E, MRC5, 0.011 μM remdesivir alone, MRC-5 infected 3 hr, MOI 0.01, 48 hpi",27%
same,Remdesivir alone (viral load remaining relative to control),HCoV-229E [1]; Remdesivir concentration 0.011,73%
same,Calculated additive,HCoV-229E [1]; Remdesivir concentration 0.011,42%
same,Measured combined (viral load remaining relative to control),HCoV-229E [1]; Remdesivir concentration 0.011 with TTFields,46%
same,Remdesivir alone (viral load remaining relative to control),HCoV-229E [1]; Remdesivir concentration 0.023,35%
same,Calculated additive,HCoV-229E [1]; Remdesivir concentration 0.023,20%
same,Measured combined (viral load remaining relative to control),HCoV-229E [1]; Remdesivir concentration 0.023 with TTFields,15%
same,reduction of viral load,"HCoV-229E [1]; high dose (0.023 μM) remdesivir with concomitant 150 kHz TTFields, 48 hpi",85%
same,reduction of viral load,"HCoV-229E [1]; low dose (0.011 μM) remdesivir with concomitant 150 kHz TTFields, 48 hpi",54%
same,reduction in number of virions secreted to the media,HCoV-229E [2]; 0.011 μM remdesivir alone,31%
same,reduction in number of virions secreted to the media,HCoV-229E [2]; 0.023 μM remdesivir alone,75%
same,decrease in number of virions secreted to the media,HCoV-229E [2]; high dose (0.023 μM) remdesivir with concomitant 150 kHz TTFields,88%
same,decrease in number of virions secreted to the media,HCoV-229E [2]; low dose (0.011 μM) remdesivir with concomitant 150 kHz TTFields,68%
